The assay deals with PR1#81::GUS. Nature of the assay: Effects of defense elicitors on PR1#81::GUS expression in bombarded GS3 immature embryos. The format is cell-based, maize. As to conditions: 1 mM salicylic acid or 0.1 mM jasmonic acid, 20-24 h; for PR1#81::GUS expression in the absence of exogenous NPR1: PR1#81::GUS alone; for PR1#81::GUS expression in the presence of exogenous NPR1: co-bombarded with Ubi::NPR1. As for the experimental part: To evaluate the effects of defense elicitors on PR1#81::GUS expression with or without overexpression of NPR1, three experiments with a total of five replications were performed. GS3 immature embryos were bombarded with either PRI#81::GUS alone or in combination with Ubi::NPR1. Twenty-four hours after bombardment the embryos were treated with either 50 µg/ml of chitosan, 1 mM salicylic acid, or 0.1 mM jasmonic acid diluted in liquid osmotic medium. The embryos were then cultured at 28° C. for twenty to twenty-four hours before the histochemical GUS staining at 37° C. Visual observation of blue spots by histochemical GUS staining was used for interpretation of the transient assay results.

As to `O=C(O)c1ccccc1O` [salicylic acid], the “PR1#81::GUS expression in the absence of exogenous NPR1” value was “up regulated” and the “PR1#81::GUS expression in the presence of exogenous NPR1” value is given as “up regulates”.
In the same order, the values of `CC/C=C\C[C@H]1C(=O)CC[C@@H]1CC(=O)O` [jasmonic acid] are “suppressed” and “suppressed”.

Source of the values: US6713665B2, “Maize NPR1 promoter and methods of use in plant gene expression” (Pioneer Hi-Bred International, Inc., priority 1999, dated 2004).
